In patent US10005788B2, “Bicyclic fused pyrimidine compounds as TAM inhibitors” (Incyte Corporation, priority 2015, dated 2018):

How the values were obtained:
JAK2 = JAK2 (Homo sapiens (Human), UniProt O60674); settings: ratio of IC50, 1 mM ATP; cited from earlier work
JAK1 = JAK1 (Homo sapiens (Human), UniProt P23458); settings: 1 mM ATP; cited from earlier work
Tyro3 = Tyro3 (Homo sapiens (Human), UniProt Q06418); assay: TAM Enzymatic Assay (HTRF), Tyro3; format: biochemical; settings: 0.366 nM Tyro3, HTRF
Chain of Tyro3 (Q06418 41-890): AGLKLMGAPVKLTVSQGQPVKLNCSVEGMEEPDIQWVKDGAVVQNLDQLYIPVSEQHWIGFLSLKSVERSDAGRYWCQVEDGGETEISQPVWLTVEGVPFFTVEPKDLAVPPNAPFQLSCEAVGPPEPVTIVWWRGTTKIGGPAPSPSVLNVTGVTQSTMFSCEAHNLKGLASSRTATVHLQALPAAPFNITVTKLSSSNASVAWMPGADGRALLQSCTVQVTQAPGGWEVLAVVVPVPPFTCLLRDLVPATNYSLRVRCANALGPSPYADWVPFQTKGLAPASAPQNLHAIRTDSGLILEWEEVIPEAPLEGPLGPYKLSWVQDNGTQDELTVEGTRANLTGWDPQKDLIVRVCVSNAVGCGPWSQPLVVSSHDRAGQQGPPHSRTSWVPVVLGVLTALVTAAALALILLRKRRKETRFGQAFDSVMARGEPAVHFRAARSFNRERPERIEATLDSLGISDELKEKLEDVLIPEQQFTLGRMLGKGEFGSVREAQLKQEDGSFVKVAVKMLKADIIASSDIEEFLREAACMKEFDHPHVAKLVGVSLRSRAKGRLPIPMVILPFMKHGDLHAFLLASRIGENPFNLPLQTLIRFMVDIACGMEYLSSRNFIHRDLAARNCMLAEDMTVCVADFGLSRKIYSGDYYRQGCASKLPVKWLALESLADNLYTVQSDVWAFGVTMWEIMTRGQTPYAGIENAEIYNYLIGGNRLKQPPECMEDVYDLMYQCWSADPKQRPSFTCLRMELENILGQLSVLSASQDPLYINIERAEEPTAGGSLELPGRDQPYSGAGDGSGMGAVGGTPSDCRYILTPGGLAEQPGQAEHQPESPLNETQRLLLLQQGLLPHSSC
Protocol: The kinase assay buffer contained 50 mM HEPES, pH7.5, 10 mM MgCl2, 1 mM EGTA, 0.01% NP-40 and 2 mM DTT. 0.1 ul test compounds dissolved in DMSO were transferred from compound plates to white 384-well assay plates (Greiner [sequence] plates). […] 4 ul enzyme solution (or assay buffer for the enzyme blank) was added to the appropriate wells in each plate, and then 4 ul/well substrate solution was added to initiate the reaction. The plate was protected from light and incubated at room temperature for 60 min. […] The plate was incubated for 1 h at room temperature, and HTRF (homogenous time resolved fluorescence) signal was measured on a PHERAstar FS plate reader (BMG labtech). Percentage of inhibition was calculated for each concentration and IC50 value was generated from curve fitting with GraphPad Prism software.

c-Mer = c-Mer (Homo sapiens (Human), UniProt Q12866); assay: TAM Enzymatic Assay (HTRF), c-Mer; format: biochemical; settings: 0.0625 nM c-Mer
Chain of c-Mer (Q12866 21-999): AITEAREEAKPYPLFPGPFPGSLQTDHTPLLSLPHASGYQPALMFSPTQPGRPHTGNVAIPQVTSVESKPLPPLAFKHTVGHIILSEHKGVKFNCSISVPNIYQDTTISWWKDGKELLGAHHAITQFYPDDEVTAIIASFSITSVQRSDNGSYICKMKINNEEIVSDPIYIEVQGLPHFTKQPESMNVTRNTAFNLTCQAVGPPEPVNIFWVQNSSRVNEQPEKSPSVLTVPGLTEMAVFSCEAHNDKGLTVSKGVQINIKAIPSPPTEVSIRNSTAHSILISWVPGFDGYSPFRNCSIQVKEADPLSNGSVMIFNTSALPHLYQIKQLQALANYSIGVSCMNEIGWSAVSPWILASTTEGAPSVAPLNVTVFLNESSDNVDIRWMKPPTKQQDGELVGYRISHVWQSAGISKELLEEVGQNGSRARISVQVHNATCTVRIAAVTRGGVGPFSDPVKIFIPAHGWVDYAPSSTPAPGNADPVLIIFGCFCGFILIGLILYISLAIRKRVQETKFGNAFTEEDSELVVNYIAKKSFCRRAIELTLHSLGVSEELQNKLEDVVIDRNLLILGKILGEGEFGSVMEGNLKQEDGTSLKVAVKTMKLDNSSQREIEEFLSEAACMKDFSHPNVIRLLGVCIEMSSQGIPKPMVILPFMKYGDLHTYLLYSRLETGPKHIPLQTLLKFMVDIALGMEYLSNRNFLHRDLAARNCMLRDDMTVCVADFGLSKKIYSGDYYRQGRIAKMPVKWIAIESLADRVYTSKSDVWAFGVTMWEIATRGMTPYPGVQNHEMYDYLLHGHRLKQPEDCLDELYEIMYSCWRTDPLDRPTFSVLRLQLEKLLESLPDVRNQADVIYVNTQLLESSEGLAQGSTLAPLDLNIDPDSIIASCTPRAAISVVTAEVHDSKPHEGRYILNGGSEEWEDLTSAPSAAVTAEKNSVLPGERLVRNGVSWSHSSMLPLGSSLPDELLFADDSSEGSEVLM

Chain of JAK1 (P23458 whole entry, species assumed): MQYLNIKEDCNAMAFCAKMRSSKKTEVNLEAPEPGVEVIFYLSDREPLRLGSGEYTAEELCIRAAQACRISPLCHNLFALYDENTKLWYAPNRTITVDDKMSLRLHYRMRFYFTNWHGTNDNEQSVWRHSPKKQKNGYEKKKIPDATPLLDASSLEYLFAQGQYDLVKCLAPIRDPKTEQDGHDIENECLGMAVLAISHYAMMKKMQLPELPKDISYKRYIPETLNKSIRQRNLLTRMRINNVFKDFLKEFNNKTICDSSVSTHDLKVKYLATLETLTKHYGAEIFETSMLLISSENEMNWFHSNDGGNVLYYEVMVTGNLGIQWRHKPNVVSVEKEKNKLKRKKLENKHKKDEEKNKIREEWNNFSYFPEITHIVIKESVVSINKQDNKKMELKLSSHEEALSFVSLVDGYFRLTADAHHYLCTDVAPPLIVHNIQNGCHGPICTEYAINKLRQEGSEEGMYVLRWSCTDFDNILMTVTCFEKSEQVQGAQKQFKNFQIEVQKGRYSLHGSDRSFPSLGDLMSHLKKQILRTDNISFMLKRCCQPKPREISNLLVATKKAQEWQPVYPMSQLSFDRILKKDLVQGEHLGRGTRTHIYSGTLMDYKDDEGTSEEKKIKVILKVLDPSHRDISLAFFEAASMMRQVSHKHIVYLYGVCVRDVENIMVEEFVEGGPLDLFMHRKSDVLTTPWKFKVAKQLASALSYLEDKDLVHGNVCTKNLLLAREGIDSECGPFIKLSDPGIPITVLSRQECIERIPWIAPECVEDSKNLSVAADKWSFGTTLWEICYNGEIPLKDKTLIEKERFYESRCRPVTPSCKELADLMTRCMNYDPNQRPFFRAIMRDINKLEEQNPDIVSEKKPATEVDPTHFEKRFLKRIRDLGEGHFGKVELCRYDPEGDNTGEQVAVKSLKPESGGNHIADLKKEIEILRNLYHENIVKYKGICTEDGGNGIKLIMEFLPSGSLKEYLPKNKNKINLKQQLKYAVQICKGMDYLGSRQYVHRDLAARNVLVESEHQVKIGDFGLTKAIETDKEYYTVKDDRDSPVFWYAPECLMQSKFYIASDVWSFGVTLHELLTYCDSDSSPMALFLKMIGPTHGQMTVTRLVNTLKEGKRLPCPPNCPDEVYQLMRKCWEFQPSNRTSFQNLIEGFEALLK
Chain of JAK2 (O60674 whole entry, species assumed): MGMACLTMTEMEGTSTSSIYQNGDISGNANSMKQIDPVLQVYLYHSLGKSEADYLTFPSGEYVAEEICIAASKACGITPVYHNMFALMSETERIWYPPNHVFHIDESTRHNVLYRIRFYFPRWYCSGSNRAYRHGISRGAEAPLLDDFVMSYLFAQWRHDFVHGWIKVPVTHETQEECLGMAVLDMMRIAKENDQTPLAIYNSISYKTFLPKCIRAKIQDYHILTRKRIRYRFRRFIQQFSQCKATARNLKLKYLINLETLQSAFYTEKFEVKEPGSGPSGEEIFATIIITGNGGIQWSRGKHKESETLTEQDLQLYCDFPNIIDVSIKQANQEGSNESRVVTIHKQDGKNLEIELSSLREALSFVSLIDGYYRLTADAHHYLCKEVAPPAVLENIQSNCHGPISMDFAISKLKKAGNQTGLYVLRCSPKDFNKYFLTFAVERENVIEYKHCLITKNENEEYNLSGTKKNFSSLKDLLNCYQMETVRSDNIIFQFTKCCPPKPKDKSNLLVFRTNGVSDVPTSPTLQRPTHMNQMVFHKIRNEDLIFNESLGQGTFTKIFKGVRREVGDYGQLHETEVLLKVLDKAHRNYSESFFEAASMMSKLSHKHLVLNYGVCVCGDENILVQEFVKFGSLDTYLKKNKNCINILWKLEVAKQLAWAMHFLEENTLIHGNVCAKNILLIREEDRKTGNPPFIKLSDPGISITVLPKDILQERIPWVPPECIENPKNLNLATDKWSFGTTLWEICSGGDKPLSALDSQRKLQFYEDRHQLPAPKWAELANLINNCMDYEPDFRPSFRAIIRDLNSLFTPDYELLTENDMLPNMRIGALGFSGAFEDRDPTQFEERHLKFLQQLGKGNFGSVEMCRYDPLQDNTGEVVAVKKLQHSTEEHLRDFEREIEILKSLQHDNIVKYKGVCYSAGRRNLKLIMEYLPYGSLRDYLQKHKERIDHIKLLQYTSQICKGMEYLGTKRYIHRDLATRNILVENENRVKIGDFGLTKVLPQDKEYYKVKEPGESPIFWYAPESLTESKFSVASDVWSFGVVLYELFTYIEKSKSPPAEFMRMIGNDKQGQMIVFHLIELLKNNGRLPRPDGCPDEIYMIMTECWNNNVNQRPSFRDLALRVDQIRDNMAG

Row | Compound | JAK2/JAK1 (JAK2) | also measured
1 | C[C@@H](CO)NCc1cc(OC2CCN([C@H]3C[C@](CC#N)(n4cc(-c5ncnc6[nH]ccc56)cn4)C3)CC2)nc(C(F)(F)F)c1 [Compound 23, {trans-3-(4-{[4-({[(1S)-2-hydroxy-1-methylethyl]amino}methyl)-6-(trifluoromethyl)pyridin-2-yl]oxy}piperidin-1-yl)-1-[4-(7H-pyrrolo[2,3-d]pyrimidin-4-yl)-1H-pyrazol-1-yl]cyclobutyl}acetonitrile] | >10 | –
2 | N#CCC(C1CCN(c2nc3cccnc3o2)C1)n1cc(-c2ncnc3[nH]ccc23)cn1 (centres unmarked) [Compound 4, 3-(1-[1,3]oxazolo[5,4-b]pyridin-2-ylpyrrolidin-3-yl)-3-[4-(7H-pyrrolo[2,3-d]pyrimidin-4-yl)-1H-pyrazol-1-yl]propanenitrile] | >10 | –
3 | CCCCNc1ncc2c(-c3ccc(F)cc3)nc(C3CCC(N)CC3)n2n1 (centres unmarked) [Example 15, 7-(4-Aminocyclohexyl)-N-butyl-5-(4-fluorophenyl)imidazo[5,1-f][1,2,4]triazin-2-amine] | – | IC50 (JAK1): < 10 nM
4 | N#CC[C@]1(n2cc(-c3ncnc4[nH]ccc34)cn2)C[C@H](N2CCN(C(=O)c3ccnc(C(F)(F)F)n3)CC2)C1 [Compound 10, [trans-1-[4-[7H-pyrrolo[2,3-d]pyrimidin-4-yl)-1H-pyrazol-1-yl]-3-(4-{[2-(trifluoromethyl)pyrimidin-4-yl]carbonyl}piperazin-1-yl)cyclobutyl]acetonitrile] | >10 | –
5 | C[C@H](NC(=O)c1cc(F)c(N2CC(CC#N)(n3cc(-c4ncnc5[nH]ccc45)cn3)C2)cc1F)C(F)(F)F [Compound 16, 4-{3-(cyanomethyl)-3-[4-(7H-pyrrolo[2,3-d]pyrimidin-4-yl)-1H-pyrazol-1-yl]azetidin-1-yl}-2,5-difluoro-N-[(1S)-2,2,2-trifluoro-1-methylethyl]benzamide] | >10 | –
6 | N#CCC1(n2cc(-c3ncnc4[nH]ccc34)cn2)CN([C@H]2CC[C@@H](Oc3cc(CCO)nc(C(F)(F)F)n3)CC2)C1 [Compound 18, {1-(cis-4-{[6-(2-hydroxyethyl)-2-(trifluoromethyl)pyrimidin-4-yl]oxy}cyclohexyl)-3-[4-(7H-pyrrolo[2,3-d]pyrimidin-4-yl)-1H-pyrazol-1-yl]azetidin-3-yl}acetonitrile] | >10 | –
7 | CCCCNc1ncc2c(-c3ccc(F)cc3)nc(C[C@H]3CC[C@H](N)CC3)n2n1 [Example 13, trans-7-[(4-Aminocyclohexyl)methyl]-N-butyl-5-(4-fluorophenyl)imidazo[5,1-f][1,2,4]triazin-2-amine] | – | IC50 (JAK1): < 10 nM
8 | C[C@H](O)CNCc1cc(OC2CCN([C@H]3C[C@](CC#N)(n4cc(-c5ncnc6[nH]ccc56)cn4)C3)CC2)nc(C(F)(F)F)c1 [Compound 25, {trans-3-(4-{[4-({[(2S)-2-hydroxypropyl]amino}methyl)-6-(trifluoromethyl)pyridin-2-yl]oxy}piperidin-1-yl)-1-[4-(7H-pyrrolo[2,3-d]pyrimidin-4-yl)-1H-pyrazol-1-yl]cyclobutyl}acetontrile] | >10 | –
9 | N#CCC(CN1CCN(C(=O)c2ccc(C#N)cc2F)CC1)n1ccc(-c2ncnc3[nH]ccc23)c1 (centres unmarked) [Compound 6, 4-[(4-{3-cyano-2-[3-(7H-pyrrolo[2,3-d]pyrimidin-4-yl)-1H-pyrrol-1-yl]propyl}piperazin-1-yl)carbonyl]-3-fluorobenzonitrile] | >10 | –
10 | C[C@@H](O)CNCc1cc(OC2CCN([C@H]3C[C@](CC#N)(n4cc(-c5ncnc6[nH]ccc56)cn4)C3)CC2)nc(C(F)(F)F)c1 [Compound 24, {trans-3-(4-{[4-({[(2R)-2-hydroxypropyl]amino}methyl)-6-(trifluoromethyl)pyridin-2-yl]oxy}piperidin-1-yl)-1-[4-(7H-pyrrolo[2,3-d]pyrimidin-4-yl)-1H-pyrazol-1-yl]cyclobutyl}acetonitrile] | >10 | –
11 | N[C@H]1CC[C@H](Cc2nc(-c3ccc(F)cc3)c3cnc(NCCCc4ccccc4)nn23)CC1 [Example 14, trans-7-((4-Aminocyclohexyl)methyl)-5-(4-fluorophenyl)-N-(3-phenylpropyl)imidazo[5,1-f][1,2,4]triazin-2-amine] | >10 | IC50 (Tyro3): > 1000 nM; IC50 (c-Mer): ≤ 100 nM; IC50 (JAK1): < 10 nM
12 | C[C@@H](O)c1nc2cnc3ccsc3c2n1[C@H]1CC[C@H](CC#N)OC1 [Compound 1, ((2R,5S)-5-{2-[(1R)-1-hydroxyethyl]-1H-imidazo[4,5-d]thieno[3,2-b]pyridin-1-yl}tetrahydro-2H-pyran-2-yl)acetonitrile] | >10 | –
13 | N#CCC1(n2cc(-c3ncnc4[nH]ccc34)cn2)CN(C2CCN(C(=O)c3ccnc(C(F)(F)F)n3)CC2)C1 [Compound 9, [3-[4-(7H-pyrrolo[2,3-d]pyrimidin-4-yl)-1H-pyrazol-1-yl]-1-(1-{[2-(trifluoromethyl)pyrimidin-4-yl]carbonyl}piperidin-4-yl)azetidin-3-yl]acetonitrile] | >10 | –
14 | N#CCC1(n2cc(-c3ncnc4[nH]ccc34)cn2)CN(C2CCN(C(=O)Nc3ccc(F)cc3C(F)(F)F)CC2)C1 [Compound 8, 4-{3-(Cyanomethyl)-3-[4-(7H-pyrrolo[2,3-d]pyrimidin-4-yl)-1H-pyrazol-1-yl]azetidin-1-yl}-N-[4-fluoro-2-(trifluoromethyl)phenyl]piperidine-1-carboxamide] | >10 | –
15 | N#CCC(CN1CCN(C(=O)c2ccc(C#N)cc2F)CC1)n1cc(-c2ncnc3[nH]ccc23)cn1 (centres unmarked) [Compound 5] | >10 | –
16 | N#CCC(C1CCN(c2cccc(Cl)n2)C1)n1cc(-c2ncnc3[nH]ccc23)cn1 (single isomer, unassigned) [Compound 3, 3-[1-(6-chloropyridin-2-yl)pyrrolidin-3-yl]-3-[4-(7H-pyrrolo[2,3-d]pyrimidin-4-yl)-1H-pyrazol-1-yl]propanenitrile] | >10 | –
17 | N#CCC1(n2cc(-c3ncnc4[nH]ccc34)cn2)CN(C2CCN(C(=O)c3ccnc(C(F)(F)F)c3F)CC2)C1 [Compound 7, {1-{1-[3-Fluoro-2-(trifluoromethyl)isonicotinoyl]piperidin-4-yl}-3-[4-(7H-pyrrolo[2,3-d]pyrimidin-4-yl)-1H-pyrazol-1-yl]azetidin-3-yl}acetonitrile] | >10 | –
18 | CC(C)(O)c1cc(O[C@H]2CC[C@@H](N3CC(CC#N)(n4cc(-c5ncnc6[nH]ccc56)cn4)C3)CC2)nc(C(F)(F)F)c1 [Compound 20, {1-(cis-4-{[4-(1-hydroxy-1-methylethyl)-6-(trifluoromethyl)pyridin-2-yl]oxy}cyclohexyl)-3-[4-(7H-pyrrolo[2,3-d]pyrimidin-4-yl)-1H-pyrazol-1-yl]azetidin-3-yl}acetonitrile] | >10 | –
19 | CCNCc1cc(O[C@H]2CC[C@@H](N3CC(CC#N)(n4cc(-c5ncnc6[nH]ccc56)cn4)C3)CC2)nc(C(F)(F)F)c1 [Compound 19, {1-(cis-4-{[4-[(ethylamino)methyl]-6-(trifluoromethyl)pyridin-2-yl]oxy}cyclohexyl)-3-[4-(7H-pyrrolo[2,3-d]pyrimidin-4-yl)-1H-pyrazol-1-yl]azetidin-3-yl}acetonitrile] | >10 | –
20 | N#CC[C@]1(n2cc(-c3ncnc4[nH]ccc34)cn2)C[C@H](N2CCC(Oc3cc(CCO)cc(C(F)(F)F)n3)CC2)C1 [Compound 26, {trans-3-(4-{[4-(2-hydroxyethyl)-6-(trifluoromethyl)pyridin-2-yl]oxy}piperidin-1-yl)-1-[4-(7H-pyrrolo[2,3-d]pyrimidin-4-yl)-1H-pyrazol-1-yl]cyclobutyl}acetonitrile] | >10 | –
